The record followed here is publication PMC12526720, “Hydralazine inhibits cysteamine dioxygenase to treat preeclampsia and senesce glioblastoma” (Science Advances, 2024).

Counter-ions that a name gives are not always drawn.

One assay concerns the target T1, mouse ADO (Mus musculus, UniProt Q6PDY2).
T1 construct: endogenous
T1 sequence (Q6PDY2 1-256): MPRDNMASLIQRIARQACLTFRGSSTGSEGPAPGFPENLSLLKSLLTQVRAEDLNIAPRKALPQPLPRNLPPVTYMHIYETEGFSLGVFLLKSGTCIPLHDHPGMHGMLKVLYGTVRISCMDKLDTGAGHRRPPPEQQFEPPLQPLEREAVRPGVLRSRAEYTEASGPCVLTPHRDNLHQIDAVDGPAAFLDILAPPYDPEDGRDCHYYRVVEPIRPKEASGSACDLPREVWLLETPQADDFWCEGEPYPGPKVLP
The experiment in a line: quantitative chemoproteomics in RAW […] and Neuro 2a cells, and in mouse heart and brain. It counts as cell-based.

Assay [1] concerns the target T2, 2-aminoethanethiol dioxygenase (ADO) (Homo sapiens, UniProt Q96SZ5).
T2 construct: WT hADO (NP_116193.2), His6 tag cleaved with TEV
T2 sequence (Q96SZ5 1-270): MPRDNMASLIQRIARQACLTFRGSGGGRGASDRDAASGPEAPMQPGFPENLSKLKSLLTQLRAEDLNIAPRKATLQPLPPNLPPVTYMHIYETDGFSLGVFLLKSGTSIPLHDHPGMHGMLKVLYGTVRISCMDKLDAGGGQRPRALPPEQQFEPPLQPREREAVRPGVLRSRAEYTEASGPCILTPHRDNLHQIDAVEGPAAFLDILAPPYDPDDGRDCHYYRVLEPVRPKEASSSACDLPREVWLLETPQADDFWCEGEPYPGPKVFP
The experiment in a line: O2 consumption (oxygen electrode) with purified Fe(II)•ADO, global fit; EPR of Co(II)•ADO also supports binding. It counts as biochemical.

Regarding `C#CCOCc1ccc2c(NN)nncc2c1` [HYZyne, 1-hydrazineyl-6-((prop-2-yn-1-yloxy)methyl)phthalazine hydrochloride], at mouse ADO, the “quantitative chemoproteomics in RAW 264.7 and Neuro 2a cells, and in mouse heart” value was “mouse ADO was also identified as a primary, high-reactivity, and high-stoichiometry target of HYZyne in both mouse cell types”.
In turn, `NNc1nncc2ccccc12` [HYZ, Hydralazine] registered a Ki in assay [1] of 2.48 ± 0.42 µM.
